According to ChEMBL document CHEMBL1128110, “Enantiodifferentiation of dihydropyridine PAF antagonists” (Bioorg Med Chem Lett, 1995):
pIC50: −log10 of the molar value.

How the values were obtained:
[1] = tested on: Mus sp.; assay: In vivo for PAF antagonist activity in mice after oral administration; format: functional
[2] = Plasma half life was evaluated in Dog; format: ADME, organism-based, Canis lupus familiaris
[3] = Oral bioavailability in dog; format: ADME, organism-based, Canis lupus familiaris; settings: in vivo
[4] = Half life was evaluated in dog; format: ADME, organism-based, Canis lupus familiaris; settings: in vivo
[5] = Inhibition of [3H]nitrendipine binding to dihydropyridine sites of bovine frontal cortex membranes; format: tissue-based, Bos taurus
[6] = species on record: Rattus norvegicus; assay: Calcium channel blocking activity in K+ stimulated rat aorta assay; format: functional
[7] = Plasma half life was evaluated; format: ADME, organism-based, Canis lupus familiaris; settings: dog
[8] = Plasma half life was evaluated in dog; format: ADME, organism-based, Canis lupus familiaris

With `CCO/C(O)=C1\C(COCCn2c(C)nc3ccccc32)=NC(C)=C(C(=O)Nc2ccccn2)C1c1ccccc1Cl` (stereo unspecified) as the compound, how does the ED50 ([1]; Mus sp., po, read-out: ED50) read?
The ED50 was 49 mg/kg.

Which results are given for `CCO/C(O)=C1\C(COCCn2c(C)nc3ccccc32)=NC(C)=C(C(=O)NC(C)(C)C)C1c1ccccc1Cl` (stereo unspecified)?
half-life [2]: 1.2 h; bioavailability [3]: 30%; ED50 ([1]; Mus sp., po, read-out: ED50): 34 mg/kg

What does the source list for `CCO/C(O)=C1\C(COCCn2c(C)nc(C)c2C)=NC(C)=C(C(=O)Nc2cccc(C)n2)C1c1ccccc1Cl` (stereo unspecified)?
half-life [4]: 4.4 h; bioavailability [3]: 9%; ED50 ([1]; Mus sp., po, read-out: ED50): 4.5 mg/kg

With `CCO/C(O)=C1\C(COCCn2c(C)nc(C)c2C)=NC(C)=C(C(=O)OC)[C@@H]1c1ccccc1Cl` as the compound, how does the pIC50 [5] read?
The pIC50 was 7.39.

What about the pIC50 [6] of the same compound?
Its pIC50 is 7.92.

With `CCO/C(O)=C1\C(COCCn2c(C)nc(C)c2C)=NC(C)=C(C(=O)NC(C)(C)C)C1c1ccccc1Cl` (stereo unspecified) as the compound, how does the ED50 ([1]; Mus sp., po, read-out: ED50) read?
Its ED50 is 10.1 mg/kg.

For `CCO/C(O)=C1\C(COCCn2c(C)nc3cnccc32)=NC(C)=C(C(=O)Nc2ccccn2)C1c1ccccc1Cl` (stereo unspecified), which half-life [7] is on record?
Its half-life is 0.75 h.

And the bioavailability [3]?
Its bioavailability is 4%.

What about the ED50 ([1]; Mus sp., po, read-out: ED50) of the same compound?
The ED50 was 2 mg/kg.

With `CCO/C(O)=C1\C(COCCn2c(C)nc3cccnc32)=NC(C)=C(C(=O)Nc2ccccn2)C1c1ccccc1Cl` (stereo unspecified) as the compound, how does the ED50 ([1]; Mus sp., po, read-out: ED50) read?
The ED50 was 25 mg/kg.

With `CCO/C(O)=C1\C(COCCn2c(C)nc(C)c2C)=NC(C)=C(C(=O)OC)[C@H]1c1ccccc1Cl` as the compound, how does the pIC50 [5] read?
Its pIC50 is less than 5.00.

And the pIC50 [6]?
The pIC50 was less than 6.00.

With `CCO/C(O)=C1\C(COCCn2c(C)nc3ccncc32)=NC(C)=C(C(=O)Nc2ccccn2)C1c1ccccc1Cl` (stereo unspecified) as the compound, how does the ED50 ([1]; Mus sp., po, read-out: ED50) read?
Its ED50 is 29 mg/kg.

For `CCO/C(O)=C1\C(COCCn2c(C)nc3ncccc32)=NC(C)=C(C(=O)Nc2ccccn2)C1c1ccccc1Cl` (stereo unspecified), which ED50 ([1]; Mus sp., po, read-out: ED50) is on record?
Its ED50 is 31 mg/kg.

With `CCO/C(O)=C1\C(COCCn2c(C)nc(C)c2C)=NC(C)=C(C(=O)Nc2ccccc2)C1c1ccccc1Cl` (stereo unspecified) as the compound, how does the ED50 ([1]; Mus sp., po, read-out: ED50) read?
The ED50 was 18 mg/kg.

With `CCO/C(O)=C1\C(COCCn2c(C)nc(C)c2C)=NC(C)=C(C(=O)OC)C1c1ccccc1Cl` (stereo unspecified) as the compound, how does the pIC50 [5] read?
Its pIC50 is 7.02.

And the pIC50 [6]?
Its pIC50 is 7.85.

For `CCOC(=O)C1=C(c2ccc(-n3c(C)nc4cnccc43)cc2)NC(C)=C(C(=O)Nc2ccccn2)C1c1ccccc1Cl` (single isomer, unassigned; (+)), which ED50 [1] is on record?
The ED50 was 0.15 mg/kg.

Which ED50 [1] does the source give for `CCOC(=O)C1=C(c2ccc(-n3c(C)nc4cnccc43)cc2)NC(C)=C(C(=O)Nc2ccccn2)C1c1ccccc1Cl` (single isomer, unassigned; (-)) here?
The ED50 was 3.8 mg/kg.

Which results are given for `CCOC(=O)C1=C(c2ccc(-n3c(C)nc4cnccc43)cc2)NC(C)=C(C(=O)Nc2ccccn2)C1c1ccccc1Cl` (stereo in doubt; 18)?
half-life [8]: 1.2 h; bioavailability [3]: 100%; ED50 [1]: 0.26 mg/kg
